Data as given in ChEMBL document CHEMBL1156667, “Dynamic nature of the ligustilide complex” (J Nat Prod, 2008).

Tests used:
Assay type in all cases: physicochemical
[1] = Chemical stability in CDCl3 after 46 days by qHNMR experiment; conditions: read-out: Stability
[2] = Chemical stability in DMSO after 41 days; conditions: read-out: Stability
[3] = Chemical stability in heaxane; EtOAc:MeOH:H2O-7 (9:1:9:1) after 41 days by qHNMR experiment; conditions: hexane:EtOAc:MeOH:H2O (9:1:9:1) solvent mixture; read-out: Stability
[4] = Chemical stability in MeOH after 41 days; conditions: read-out: Stability
[5] = Chemical stability in CDCl3 after 46 days by GC-MS analysis; conditions: read-out: Stability

## CCC/C=C1\OC(=O)C2=C1CCC=C2 [LIGUSTILIDE]
[1]
  remaining at 1104 h: 78.1%
[2]
  remaining at 984 h: 5.2%
[3]
  remaining at 984 h: 0.8%
[4]
  remaining at 984 h: 4.4%
[5]
  remaining at 1104 h: 91.6%
